Experimental data taken from patent US5596002A, “Method of treating chloroquine-resistant malaria with aminoquinoline derivatives” (Hoffmann-La Roche Inc., priority 1993, dated 1997).
Converted amounts (≈) assume the structure as drawn. Where two headings read alike, the source gives them in different places.

Experiments:
[1] = tested on: Plasmodium falciparum, chloroquine-resistant strain Indo; assay: activity against P. falciparum in vitro, strain Indo; type: cell-based; settings: chloroquine-resistant strain Indo, 48 h-72 h, read-out: IC50 (50% growth inhibition)
Procedure: (§1) Test method for the determination of the activity against P. falciparum in vitro
(§2) The preparations of the present invention were tested on intraerythrocytary stages of P. falciparum from asynchronous cultures according to the method of Desjardin et al. (Desjardins, R. E. et al: Quantitative assessment of antimalarial activity in vitro by a semiautomated microdilution technique. Antimicrob. Agents Chemother. 16, 710-718, (1979)).
(§3) The culture medium consisted of RPMI 1640 with the addition of 25 mM HEPES, 25 mM NaHCO3, […] neomycin and 10% human serum (A^+). Human-A^+ erythrocytes were used as the P. falciparum host cells. The parasites were maintained at 37° C. in an atmosphere of 3% O2, 4% CO2, 93% N2 and at 95% relative humidity.
(§4) In order to determine the activity, the preparations were dissolved in DMSO, pre-diluted in the culture medium to a suitable starting concentration and subsequently titrated-out into microtitre plates in the 2nd stage over 6-7 steps. After the addition of the parasite culture (0.7% parasitemia in 2.5% erythrocyte suspension), the test plates were incubated under the conditions given above for 48 h-72 h. The parasite growth in the different preparation concentrations was determined using [G-^3 H]-hypoxanthin incorporation compared to untreated control cultures on the same test plates. The 50% growth inhibition (IC50) was calculated according to logit regression analysis from the resulting dosage-activity curve.
(§5) The preparations were tested on at least one chloroquine-resistant and one chloroquine-sensitive P. falciparum strain. Additional sensitive and resistant strains were also included for further characterization.
(§6) Table 1 below contains the IC50 values measured in vitro for the growth inhibition of chloroquine-sensitive and chloroquine-resistant strains of the human pathogenic Plasmodium falciparum.

[2] = tested on: Plasmodium falciparum, chloroquine-resistant strain 7G8; assay: activity against P. falciparum in vitro, strain 7G8; type: cell-based; settings: chloroquine-resistant strain 7G8, 48 h-72 h, read-out: IC50 (50% growth inhibition)
Procedure: as §1, §2, §3, §4, §5, §6

[3] = tested on: Plasmodium falciparum, chloroquine-resistant strain W2 Mef; assay: activity against P. falciparum in vitro, strain W2 Mef; type: cell-based; settings: 48 h-72 h, read-out: IC50 (50% growth inhibition)
Procedure: as §1, §2, §3, §4, §5, §6

[4] = tested on: Plasmodium falciparum, chloroquine-sensitive strain RFMEF3; assay: activity against P. falciparum in vitro, strain RFMEF3; type: cell-based; settings: chloroquine-sensitive strain RFMEF3, 48 h-72 h, read-out: IC50 (50% growth inhibition)
Procedure: as §1, §2, §3, §4, §5, §6

[5] = tested on: Plasmodium falciparum, chloroquine-sensitive strain FCH5C2; assay: activity against P. falciparum in vitro, strain FCH5C2; type: cell-based; settings: chloroquine-sensitive strain FCH5C2, 48 h-72 h, read-out: IC50 (50% growth inhibition)
Procedure: as §1, §2, §3, §4, §5, §6

[6] = tested on: Plasmodium falciparum, chloroquine-sensitive strain Ro7 3; assay: activity against P. falciparum in vitro, strain Ro7 3; type: cell-based; settings: chloroquine-sensitive strain Ro7 3, 48 h-72 h, read-out: IC50 (50% growth inhibition)
Procedure: as §1, §2, §3, §4, §5, §6

[7] = tested on: Plasmodium falciparum, chloroquine-sensitive strain NF54; assay: activity against P. falciparum in vitro, strain NF54; type: cell-based; settings: Plasmodium falciparum; chloroquine-sensitive strain NF54; 48 h-72 h; read-out: IC50 (50% growth inhibition)
Procedure: as §1, §2, §3, §4, §5, §6

[8] = tested on: Plasmodium falciparum, chloroquine-resistant strain RFCR3; assay: activity against P. falciparum in vitro, strain RFCR3; type: cell-based; settings: chloroquine-resistant strain RFCR3, 48 h-72 h, read-out: IC50 (50% growth inhibition)
Procedure: as §1, §2, §3, §4, §5, §6

[9] = tested on: Plasmodium falciparum, chloroquine-resistant strain K1; assay: activity against P. falciparum in vitro, strain K1; type: cell-based; settings: Plasmodium falciparum; chloroquine-resistant strain K1; 48 h-72 h; read-out: IC50 (50% growth inhibition)
Procedure: as §1, §2, §3, §4, §5, §6

[10] = tested on: Plasmodium falciparum, chloroquine-sensitive strain HB3; assay: activity against P. falciparum in vitro, strain HB3; type: cell-based; settings: chloroquine-sensitive strain HB3, 48 h-72 h, read-out: IC50 (50% growth inhibition)
Procedure: as §1, §2, §3, §4, §5, §6

[11] = tested on: Plasmodium falciparum, chloroquine-resistant strain ItG2 F6; assay: activity against P. falciparum in vitro, strain ItG2 F6; type: cell-based; settings: chloroquine-resistant strain ItG2 F6, 48 h-72 h, read-out: IC50 (50% growth inhibition)
Procedure: as §1, §2, §3, §4, §5, §6

[12] = tested on: Plasmodium falciparum, chloroquine-resistant strain W2; assay: activity against P. falciparum in vitro, strain W2; type: cell-based; settings: chloroquine-resistant strain W2, 48 h-72 h, read-out: IC50 (50% growth inhibition)
Procedure: as §1, §2, §3, §4, §5, §6

[13] = tested on: Plasmodium berghei (strain ANKA); assay: activity against Plasmodium berghei in vivo (infected mice); settings: mice; for inhibition in vivo at 10 mg/kg: 48 hours after treatment (D+3)
Procedure: Test method for the determination of the activity against Plasmodium berghei in vivo
The preparations according to the present invention were tested on mice infected with malaria pathogens (Plasmodium berghei). Male albino mice (IBM:MORO(SPF), FUELLINSDORF) weighing about 25 g were used as the test animals. They were kept in climatized rooms at 21°-22° C. in groups of 5 animals per cage. They received ad libitum a diet feed with a low PABA content ("NAFAG FUTTER" No. 9009 PAB-45, PABA content 45 mg/kg) and drinking water. On the first day of the test (D0) the test animals were infected with Plasmodium berghei (strain ANKA). For this there was used heparinized blood of a donor mouse with about 30% parasitemia, which was diluted with physiological saline such that it contains 10^8 parasitized erythrocytes per ml. 0.2 ml of this suspension was injected intravenously (i.v.) into the mice to be treated and into the control mice. In untreated control animals the parasitemia normally reaches 30-40% on the third day after the infection (D+3) and the test animals die between days +5 and +7.
The substances to be tested were dissolved or suspended in distilled water or in a mixture of 7% Tween 80, 3% alcohol (96%) and water. Usually, 0.25 ml of this solution or suspension was administered once subcutaneously and perorally to groups of 5 test animals. Treatment was effected 24 hours after the infection. 10 control animals were treated in the same manner with solvent or suspension medium per test.
All substances were tested in a first test in a single dosage of 10 mg/kg. Only those substances which in this test (10 mg/kg) had shown a parasitaemia reduction of 90% were used for the titration.
48 hours after the treatment (D+3), blood smears were prepared from all animals using blood from tail veins and were stained with Giemsa. The average erythrocyte infection rate (parasitemia in %) in the control groups as well as in the groups which had been treated with the test compounds was determined by counting under a microscope. The difference in the average values of the infection rates of control group (100%) and treated groups was calculated and expressed as a percentage reduction (GI %). The ED50 or ED90 was determined mathematically by means of the JMP programme (nonlinear fit). The ED50 (ED90) in mg/kg is that dose which after single administration reduces the average erythrocyte infection rate by 50% (90%) in comparison to the control group.
Table 2 below contains data with respect to the activity measured against Plasmodium berghei in mice: GI % is the percentage reduction in the parasitemia after a single dose of 10 mg/kg of the test substance administered perorally (po) or subcutaneously (sc); ED50 and ED90 are the effective doses of the test substance administered perorally or subcutaneously.

SMILES | IC50 [1] [ng/mL] | IC50 [2] [ng/mL] | IC50 [3] [ng/mL] | IC50 [4] [ng/mL] | IC50 [5] [ng/mL] | IC50 [6] [ng/mL] | IC50 [7] [ng/mL] | IC50 [8] [ng/mL] | IC50 [9] [ng/mL] | IC50 [10] [ng/mL] | IC50 [11] [ng/mL] | IC50 [12] [ng/mL] | ED50 ([13]; single administration po, dose reducing average erythrocyte infection rate by 50%, read-out: ED50 (po)) [mg/kg] | inhibition in vivo at 10 mg/kg ([13]; single dose 10 mg/kg po, read-out: GI % at 10 mg/kg (po): percentage reduction in the parasitemia) [%] | inhibition in vivo at 10 mg/kg ([13]; single dose 10 mg/kg sc, read-out: GI % at 10 mg/kg (sc): percentage reduction in the parasitemia) [%]
CC(CN1CCCC1)Nc1ccnc2cc(Cl)ccc12 (racemic) [Example 3, (RS)-(7-Chloro-quinolin-4-yl)-(1-methyl-2-pyrrolidin-1-yl-ethyl)-amine] | 6 (≈ 0.0207 µM) | 7 (≈ 0.0242 µM) | 11 (≈ 0.038 µM) | 7 (≈ 0.0242 µM) | 7 (≈ 0.0242 µM) | 4 (≈ 0.0138 µM) | 7 (≈ 0.0242 µM) | 8 (≈ 0.0276 µM) | 12 (≈ 0.0414 µM) | 5 (≈ 0.0173 µM) | 5 (≈ 0.0173 µM) | 7 (≈ 0.0242 µM) | – | – | –
CC(CN1CCCCC1)Nc1ccnc2cc(Cl)ccc12 (racemic) [Example 4, (RS)-(7-Chloro-quinolin-4-yl)-(1-methyl-2-piperidin-1-yl-ethyl)-amine] | 8 (≈ 0.0263 µM) | 7 (≈ 0.023 µM) | 14 (≈ 0.0461 µM) | 7 (≈ 0.023 µM) | 8 (≈ 0.0263 µM) | 4 (≈ 0.0132 µM) | 7 (≈ 0.023 µM) | 9 (≈ 0.0296 µM) | 15 (≈ 0.0494 µM) | 8 (≈ 0.0263 µM) | 5 (≈ 0.0165 µM) | 15 (≈ 0.0494 µM) | – | – | –
CC1CCCN(CCNc2ccnc3cc(Cl)ccc23)C1 (racemic) [Example 23, (RS)-(7-Chloro-quinolin-4-yl)-[2-(3-methyl-piperidin-1-yl)-ethyl]-amine] | 8 (≈ 0.0263 µM) | 8 (≈ 0.0263 µM) | 13 (≈ 0.0428 µM) | 7 (≈ 0.023 µM) | 6 (≈ 0.0197 µM) | 4 (≈ 0.0132 µM) | 6 (≈ 0.0197 µM) | 10 (≈ 0.0329 µM) | 15 (≈ 0.0494 µM) | 7 (≈ 0.023 µM) | 6 (≈ 0.0197 µM) | 15 (≈ 0.0494 µM) | – | – | –
CC1CCCCN1CCNc1ccnc2cc(Cl)ccc12 (racemic) [Example 26, (RS)-(7-Chloro-quinolin-4-yl)-[2-(2-methyl-piperidin-1-yl) -ethyl]-amine] | 9 (≈ 0.0296 µM) | 8 (≈ 0.0263 µM) | 13 (≈ 0.0428 µM) | 9 (≈ 0.0296 µM) | 8 (≈ 0.0263 µM) | 5 (≈ 0.0165 µM) | 7 (≈ 0.023 µM) | 8 (≈ 0.0263 µM) | 15 (≈ 0.0494 µM) | 8 (≈ 0.0263 µM) | 6 (≈ 0.0197 µM) | 15 (≈ 0.0494 µM) | – | – | –
CCC1CCCCN1CCNc1ccnc2cc(Cl)ccc12 (racemic) [Example 27, (RS)-(7-Chloro-quinolin-4-yl)-[2-(2-ethyl-piperidin-1-yl)-ethyl]amine] | 9 (≈ 0.0283 µM) | 7 (≈ 0.022 µM) | 14 (≈ 0.044 µM) | 7 (≈ 0.022 µM) | 10 (≈ 0.0315 µM) | 3 (≈ 0.00944 µM) | 8 (≈ 0.0252 µM) | 15 (≈ 0.0472 µM) | 18 (≈ 0.0566 µM) | 9 (≈ 0.0283 µM) | 7 (≈ 0.022 µM) | 19 (≈ 0.0598 µM) | – | – | –
Clc1ccc2c(NCCN3CCCCC3)ccnc2c1 [Example 8, (7-Chloro-quinolin-4-yl)-(2-piperidin-1-yl-ethyl)-amine] | 5 (≈ 0.0173 µM) | 7 (≈ 0.0242 µM) | 9 (≈ 0.0311 µM) | 9 (≈ 0.0311 µM) | 9 (≈ 0.0311 µM) | 4 (≈ 0.0138 µM) | 5 (≈ 0.0173 µM) | 10 (≈ 0.0345 µM) | 11 (≈ 0.038 µM) | 7 (≈ 0.0242 µM) | 4 (≈ 0.0138 µM) | 11 (≈ 0.038 µM) | – | – | –
Clc1ccc2c(NCCCN3CCCC3)ccnc2c1 [Example 17, (7-Chloro-quinolin-4-yl)-(3-pyrrolidin-1-yl-propyl)-amine] | 7 (≈ 0.0242 µM) | 14 (≈ 0.0483 µM) | – | 8 (≈ 0.0276 µM) | 4 (≈ 0.0138 µM) | 6 (≈ 0.0207 µM) | 3 (≈ 0.0104 µM) | 11 (≈ 0.038 µM) | 15 (≈ 0.0518 µM) | 6 (≈ 0.0207 µM) | 7 (≈ 0.0242 µM) | 14 (≈ 0.0483 µM) | 4.6 | 95 | 99
CCN(CC)CCNc1ccnc2cc(C(F)(F)F)ccc12 [Example 21, N1,N1 -Diethyl-N2-(7-trifluoromethyl-quinolin-4-yl)-ethane-1,2-diamine] | 31 (≈ 0.0996 µM) | 49 (≈ 0.157 µM) | – | 35 (≈ 0.112 µM) | 35 (≈ 0.112 µM) | 28 (≈ 0.0899 µM) | 21 (≈ 0.0674 µM) | 54 (≈ 0.173 µM) | 34 (≈ 0.109 µM) | 33 (≈ 0.106 µM) | 28 (≈ 0.0899 µM) | 57 (≈ 0.183 µM) | – | – | –
